Experiments:
[1] = tested on: anesthetized rats; assay: Change of mean arterial blood pressure in anesthetized rats following intravenous administration; type: in vivo, rat; settings: 2 mg/kg, in comparison to the same dose of L-threo-DOPS
Description: Change of Mean Arterial Blood Pressure in Anesthetized Rats Following Intravenous Administration of 2 mg/kg L-Threo-2,3-Dideutero POPS in Comparison to the Same Dose of L-Threo-DOPS

[2] = biological target: T1, monoamine oxidase-A (MAO-A) (Homo sapiens, UniProt P21397); assay: In vitro monoamine oxidase A degradation assay; type: in vitro ADME; settings: incubated with MAO-A; compared to non-deuterated norepinephrine; disappearance of norepinephrine tracked
T1 sequence (P21397 1-527): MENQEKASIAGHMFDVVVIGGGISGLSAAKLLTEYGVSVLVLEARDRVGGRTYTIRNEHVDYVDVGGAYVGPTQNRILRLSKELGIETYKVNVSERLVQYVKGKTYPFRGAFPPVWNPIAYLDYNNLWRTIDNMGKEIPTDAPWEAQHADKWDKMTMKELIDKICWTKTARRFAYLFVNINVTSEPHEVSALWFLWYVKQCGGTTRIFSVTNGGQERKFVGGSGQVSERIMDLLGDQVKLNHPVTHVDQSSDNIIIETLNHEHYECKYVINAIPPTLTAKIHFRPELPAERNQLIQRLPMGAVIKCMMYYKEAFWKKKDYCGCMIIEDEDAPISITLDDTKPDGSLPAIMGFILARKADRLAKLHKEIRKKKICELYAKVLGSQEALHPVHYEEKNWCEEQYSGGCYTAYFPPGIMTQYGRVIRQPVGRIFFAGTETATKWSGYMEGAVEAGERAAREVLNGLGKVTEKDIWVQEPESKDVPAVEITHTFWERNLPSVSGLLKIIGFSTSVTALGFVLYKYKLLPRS
Description: Norepinephrine and d6-norepinephrine were incubated with monoamine oxidase-A (MAO-A).
The appearance of 3,4-dihydroxyphenylglycolaldehyde and the disappearance of norepinephrine were tracked. Compared to non-deuterated norepinephrine, d6-norepinephrine was associated with about a 5-fold decrease in digestion by MAO-A and about a 75% decrease in 3,4-dihydroxyphenylglycolaldehyde production.
The assay method is a batch alumina extraction followed by liquid chromatography with electrochemical detection. The post-column electrodes are arranged in series, with an oxidizing potential at the first electrode and reducing potential at the third. This series arrangement of flow-through electrodes reduces the solvent front substantially and improves the sensitivity and specificity for detecting reversibly oxidized species such as catechols. 3,4-Dihydroxyphenylglycolaldehyde is identified by a broad, short peak within the solvent front.

Compound	Change of mean arterial blood pressure [1]	decrease in digestion by MAO-A [2]
[2H]C(N)(C(=O)O)C([2H])(O)c1ccc(O)c(O)c1 [L-threo-2,3-dideutero DOPS]	enhanced and prolonged increase	
[2H]c1c([2H])c([C@@]([2H])(O)C([2H])([2H])N)c([2H])c(O)c1O [d6-norepinephrine]		~5 fold

Source: patent publication US20220072131A1, “Dihydroxyphenyl Neurotransmitter Compounds, Compositions And Methods” (Auspex Pharmaceuticals, Inc., priority 2013, published 2022)
